The test system of one data set is CaCo-2. The data set is described as follows: MTT antiproliferative assay, 48 h, Caco-2. It is filed as cell-based, human. To be noted: 48-hour exposition, read-out: Cytotoxicity, IC50, μM CaCo-2. The procedure:
(§1) Anticancer activity of compounds of invention, PDI A3-inhibitors has been tested in vitro in classical antiproliferative assay in various cancer cells lines. Monolayer tumor cell lines MDA-MB-231 (human mammary breast adenocarcinoma), MCF-7 (human breast adenocarcinoma, estrogen-positive), HT-1080 (human fibrosarcoma) and Caco-2 (human colon adenocarcinoma) were cultured in standard medium DMEM (Dulbecco's modified Eagle's medium) (“Sigma”) supplemented with 10% foetal bovine serum (“Sigma”). About 2000-4000 cells per well (depending on line nature) were placed in 96-well plates and after 24 h compounds were added to the wells. Untreated cells were used as a control. The plates were incubated for 48 h, 37° C., 5% CO2. The number of surviving cells was determined using 3-(4,5-dimethylthiazol-2-yl)-2,5-diphenyltetrazolinium bromide (MTT). MTT-test: after incubating culture medium was removed and 200 μL fresh medium with 20 μL MTT (2 mg/mL in HBSS) was added in each well of the plate. After incubation (3 hr., 37° C., 5% CO2), the medium with MTT was removed and 200 μL DMSO were added at once to each sample. The samples were tested at 540 nm on Thermo Scientific Multiskan EX microplate photometer. The half-maximal inhibitory concentration (IC50) of each compound was calculated using Graph Pad Prism® 3.0.
(In general: Tetrazolium assays rely on reduction of a dye to a coloured formazan, in cell work by metabolically active cells.)

A further data set addresses T1, PDI A3 (Homo sapiens, UniProt P30101).
T1 construct: purchased Mybiosource; host or cells: E. coli
T1 sequence (P30101 25-505): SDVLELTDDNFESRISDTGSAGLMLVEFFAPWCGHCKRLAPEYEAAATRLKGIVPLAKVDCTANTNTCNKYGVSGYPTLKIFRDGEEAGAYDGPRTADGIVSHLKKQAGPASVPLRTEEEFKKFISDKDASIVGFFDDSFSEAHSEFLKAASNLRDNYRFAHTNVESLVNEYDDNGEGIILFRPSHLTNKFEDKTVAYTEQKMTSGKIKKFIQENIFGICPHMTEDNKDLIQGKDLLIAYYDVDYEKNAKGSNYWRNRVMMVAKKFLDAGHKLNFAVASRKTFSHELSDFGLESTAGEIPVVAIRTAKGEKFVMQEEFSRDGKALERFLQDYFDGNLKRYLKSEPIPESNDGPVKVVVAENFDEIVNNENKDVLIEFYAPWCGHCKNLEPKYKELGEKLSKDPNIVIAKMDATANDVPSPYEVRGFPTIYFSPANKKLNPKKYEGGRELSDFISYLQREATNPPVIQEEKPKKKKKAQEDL
Nature of the data set: PDI A3 inhibition, insulin turbidimetric assay. Format: biochemical. To be noted: 10 ug/ml PDI A3, incubated 60 min at 37° C., turbidity at 650 nm; read-out: Inhibition of PDI A3 (EC 50). The method, then:
The inhibitory effects compounds of invention on activity of PDIA3 was assess based on the insulin turbidimetric assay. Enzymatic activity of PDIA3 was confirmed by measuring the turbidity increase at 650 nm due to insulin reduction. The assay mixture was prepared by addition 10 ug/ml PDI A3 (E. coli recombinant protein; Mybiosource), […] phosphate buffer (pH7.6), 1 mM EDTA, 0.087 mM DTT and with or without tested compound and was incubated for 60 min, at 37° C. Reaction was started by addition of insulin and DTT. Final concentration of insulin and DTT in assay mixture were 0.15 mMv and 0.174 mMv, respectively. Turbidity was detected at 650 nm against reference samples without PDJs. The measurements were performed at 650 nm using 120-s recordings.

The test system of the next data set is HT-1080. Nature of the data set: MTT antiproliferative assay, 48 h, HT-1080. Format: cell-based, human. To be noted: 48-hour exposition, read-out: Cytotoxicity, IC50, μM HT-1080. The procedure: as §1
For a further data set, the system named is MCF-7. Nature of the data set: MTT antiproliferative assay, 48 h, MCF-7. The settings on record: 48-hour exposition, read-out: Cytotoxicity, IC50, μM MCF-7. Format: cell-based, human. The method, then:
as §1

The subject of a further data set is MDA-MB-231. Nature of the data set: MTT antiproliferative assay, 48 h, MDA-MB-231. It is filed as cell-based, human. The settings on record: 48-hour exposition, read-out: Cytotoxicity, IC50, μM MDA-MB-231. The method, then: as §1

As usually defined, the IC50 is the concentration that inhibits the measured activity by half. “Methyl 1-(4-propylphenyl)sulfonylaziridine-2-carboxylate [Compound C-3304]”: the IC50 worked out at 10 ± 1 µM in the data set with CaCo-2, 17 ± 3 µM in the data set on HT-1080, 49 ± 1 µM in the data set on MCF-7 and 13 ± 1 µM with MDA-MB-231. In addition, at PDI A3, the EC50 was 190 µM.
